Experimental data: publication PMC12307812 (Nature Communications, 2025)
Where two headings read alike, the source gives them in different places.

Legend:
[1] = tested on: pseudovirus bearing VSV-G; experiment: organism not typed; type: cell-based; settings: Calu-3
[2] = tested on: pseudovirus bearing S protein of SARS-CoV-2 lineage B.1; experiment: organism not typed; type: cell-based
[3] = tested on: pseudovirus bearing S protein of SARS-CoV-2 lineage EG.5.1; experiment: organism not typed; type: cell-based; settings: for IC50: Calu-3 cells
[4] = tested on: pseudovirus bearing S protein of SARS-CoV-2 lineage B.1.617.2; experiment: organism not typed; type: cell-based
[5] = tested on: pseudovirus bearing S protein of MERS-CoV; experiment: organism not typed; type: cell-based
[6] = tested on: pseudovirus bearing S protein of HCoV-229E; experiment: organism not typed; type: cell-based
[7] = target: T1, Recombinant Human TMPRSS2 (Homo sapiens, UniProt O15393); experiment: TMPRSS2 biochemical assay (Boc-Gln-Ala-Arg-AMC fluorogenic substrate)
T1 construct: human TMPRSS2 residues 106492, N-terminal 6x His-tag; 6x His-tag (N); purchased Cusabio CSB-YP023924HU; host or cells: yeast
Procedure: Inhibitors of TMPRSS2 were tested using a high throughput activity assay. […] TMPRSS2 (5 µl, 0.018 mg/ml) in assay buffer (50 mM Tris pH 8, 150 mM NaCl, 0.01% Tween20) was dispensed to that, using a BioRAPTR (Beckman Coulter), for a total assay volume of 5 µl.
After incubation at room temperature for 1 h, fluorescence was measured. […] Raw plate reads for each titration point were normalized relative to a positive control containing no enzyme (0% activity, full inhibition) and a negative control containing DMSO-only wells (100% activity, basal activity). Data normalization was performed using GraphPad Prism (GraphPad Software, San Diego, CA).
We employed the curve fitting algorithm available in the SciPy package (version 1.10.1)[61] to derive the Hill slope and the IC50 value, along with their corresponding error estimates.

[8] = tested on: pseudovirus bearing S protein of SARS-CoV-1; experiment: organism not typed; type: cell-based
[9] = tested on: pseudovirus bearing S protein of SARS-CoV-2 lineage BA.2.86; experiment: organism not typed; type: cell-based
[10] = Calu-3, read-out: mean inhibition

T1 sequence (O15393 106-492 limits assumed): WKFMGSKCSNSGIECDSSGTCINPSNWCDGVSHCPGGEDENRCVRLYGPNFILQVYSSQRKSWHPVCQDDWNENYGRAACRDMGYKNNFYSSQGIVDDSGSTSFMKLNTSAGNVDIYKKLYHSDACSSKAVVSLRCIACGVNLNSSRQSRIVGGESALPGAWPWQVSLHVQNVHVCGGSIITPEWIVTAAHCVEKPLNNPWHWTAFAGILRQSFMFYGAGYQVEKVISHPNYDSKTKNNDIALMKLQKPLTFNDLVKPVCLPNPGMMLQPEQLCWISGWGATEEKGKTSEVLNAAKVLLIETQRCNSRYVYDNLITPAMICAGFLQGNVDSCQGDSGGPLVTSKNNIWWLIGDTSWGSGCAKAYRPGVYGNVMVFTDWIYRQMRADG

`CN(C)C(=O)COC(=O)Cc1ccc(OC(=O)c2ccc(NC(=N)N)cc2)cc1` [camostat] gave an inhibition at 0.00025 µM ([1]; concentration 0.25 nM) of 0.261%, an inhibition at 0.0025 µM ([1]; concentration 2.5 nM) of -1.2% and an inhibition at 0.025 µM ([1]; concentration 25 nM) of -0.393%. It also gave an inhibition at 0.25 µM ([1]; concentration 250 nM) of -0.191%, an inhibition at 2.5 µM ([1]; concentration 2500 nM) of -0.407% and an inhibition at 25 µM ([1]; concentration 25000 nM) of -1.53%. For the same compound, the inhibition at 0.00025 µM ([2]; Calu-3, B.1, concentration 0.25 nM) was -1.94%, the inhibition at 0.0025 µM ([2]; Calu-3, B.1, concentration 2.5 nM) was 3.06% and the inhibition at 0.025 µM ([2]; Calu-3, B.1, concentration 25 nM) was 2.53%. For the same compound, the inhibition at 0.25 µM ([2]; Calu-3, B.1, concentration 250 nM) was 60.8%, the inhibition at 2.5 µM ([2]; Calu-3, B.1, concentration 2500 nM) was 89.4% and the inhibition at 25 µM ([2]; Calu-3, B.1, concentration 25000 nM) was 96.6%. It also gave an IC50 ([2]; Calu-3 cells, read-out: IC50, pseudovirus cell entry B.1) of 190 nM, an inhibition at 0.00025 µM ([3]; Calu-3, EG.5.1, concentration 0.25 nM) of 3.95% and an inhibition at 0.0025 µM ([3]; Calu-3, EG.5.1, concentration 2.5 nM) of -5.66%. It also gave an inhibition at 0.025 µM ([3]; Calu-3, EG.5.1, concentration 25 nM) of 19.1%, an inhibition at 0.25 µM ([3]; Calu-3, EG.5.1, concentration 250 nM) of 34.3% and an inhibition at 2.5 µM ([3]; Calu-3, EG.5.1, concentration 2500 nM) of 43.1%. It also gave an inhibition at 25 µM ([3]; Calu-3, EG.5.1, concentration 25000 nM) of 52.7%, an IC50 ([3]; Fig. 4g, read-out: IC50 estimate, pseudovirus cell entry EG.5.1) of 8.56 ± 6.54 µM and an IC50 ([3]; read-out: IC50, EG.5.1-S protein-driven Calu-3 cell entry) of 8.56 µM. For the same compound, the inhibition at 0.00025 µM ([4]; Calu-3, B.1.617.2, concentration 0.25 nM) was -0.882%, the inhibition at 0.0025 µM ([4]; Calu-3, B.1.617.2, concentration 2.5 nM) was 3.07% and the inhibition at 0.025 µM ([4]; Calu-3, B.1.617.2, concentration 25 nM) was 10.5%. The inhibition at 0.25 µM ([4]; Calu-3, B.1.617.2, concentration 250 nM) was 57.9%, the inhibition at 2.5 µM ([4]; Calu-3, B.1.617.2, concentration 2500 nM) was 90.4% and the inhibition at 25 µM ([4]; Calu-3, B.1.617.2, concentration 25000 nM) was 96.4%. The IC50 ([4]; Calu-3 cells, read-out: IC50, pseudovirus cell entry B.1.617.2) was 191 nM, the IC50 ([5]; Calu-3, read-out: IC50 estimate, pseudovirus cell entry MERS-S) was 189 ± 12.3 nM and the inhibition at 0.00025 µM ([5]; Calu-3, concentration 0.25 nM) was 0.136%. It also gave an inhibition at 0.0025 µM ([5]; Calu-3, concentration 2.5 nM) of 2.04%, an inhibition at 0.025 µM ([5]; Calu-3, concentration 25 nM) of 13.3% and an inhibition at 0.25 µM ([5]; Calu-3, concentration 250 nM) of 57.4%. It also gave an inhibition at 2.5 µM ([5]; Calu-3, concentration 2500 nM) of 89.2%, an inhibition at 25 µM ([5]; Calu-3, concentration 25000 nM) of 95.7% and an IC50 ([6]; Calu-3, read-out: IC50 estimate, pseudovirus cell entry 229E-S) of 2010 ± 177 nM. It also gave an inhibition at 0.00025 µM [6, 10] of 1.18%, an inhibition at 0.0025 µM [6, 10] of 7.64% and an inhibition at 0.025 µM [6, 10] of 11.6%. For the same compound, the inhibition at 0.25 µM [6, 10] was 30.5%, the inhibition at 2.5 µM [6, 10] was 52.3% and the inhibition at 25 µM [6, 10] was 73.8%. For the same compound, the inhibition at 0.000677404 µM ([7]; concentration 0.677404 nM) was 13.8%, the inhibition at 0.00203221 µM ([7]; concentration 2.03221 nM) was 36.1% and the inhibition at 0.00609663 µM ([7]; concentration 6.09663 nM) was 68.3%. It also gave an inhibition at 0.0182899 µM ([7]; concentration 18.2899 nM) of 90.6%, an inhibition at 0.0548697 µM ([7]; concentration 54.8697 nM) of 102% and an inhibition at 0.164609 µM ([7]; concentration 164.609 nM) of 103%. For the same compound, the inhibition at 0.493827 µM ([7]; concentration 493.827 nM) was 105%, the inhibition at 1.48148 µM ([7]; concentration 1481.48 nM) was 105% and the inhibition at 4.44444 µM ([7]; concentration 4444.44 nM) was 104%. For the same compound, the inhibition at 13.3333 µM ([7]; concentration 13333.3 nM) was 104%, the inhibition at 40 µM ([7]; concentration 40000 nM) was 104% and the IC50 ([8]; Calu-3, read-out: IC50 estimate, pseudovirus cell entry SARS-1-S) was 193 ± 70.4 nM. The inhibition at 0.00025 µM ([8]; Calu-3, concentration 0.25 nM) was 3.15%, the inhibition at 0.0025 µM ([8]; Calu-3, concentration 2.5 nM) was 5.85% and the inhibition at 0.025 µM ([8]; Calu-3, concentration 25 nM) was 19.9%. For the same compound, the inhibition at 0.25 µM ([8]; Calu-3, concentration 250 nM) was 63.5%, the inhibition at 2.5 µM ([8]; Calu-3, concentration 2500 nM) was 76.2% and the inhibition at 25 µM ([8]; Calu-3, concentration 25000 nM) was 83.2%. The inhibition at 0.00025 µM ([9]; Calu-3, BA.2.86, concentration 0.25 nM) was 2.77%, the inhibition at 0.0025 µM ([9]; Calu-3, BA.2.86, concentration 2.5 nM) was 3.7% and the inhibition at 0.025 µM ([9]; Calu-3, BA.2.86, concentration 25 nM) was 24%. The inhibition at 0.25 µM ([9]; Calu-3, BA.2.86, concentration 250 nM) was 61.2%, the inhibition at 2.5 µM ([9]; Calu-3, BA.2.86, concentration 2500 nM) was 85.5% and the inhibition at 25 µM ([9]; Calu-3, BA.2.86, concentration 25000 nM) was 85.8%. For the same compound, the IC50 ([9]; Calu-3 cells, read-out: IC50, pseudovirus cell entry BA.2.86) was 148 nM.
